Experimental data: patent US20260028348A1, “MODULATORS OF TNF-ALPHA ACTIVITY” (Forward Therapeutics, Inc., priority 2023, published 2026)
pIC50: −log10 of the molar value.

Tested on: HEK Blue™ TNFα reporter cells
Assay: TNF-α Induced HEK Blue Cellular Assay
Assay type: cell-based
Settings: TNF-α stimulated HEK Blue TNFα reporter cells, 24 hrs, secreted alkaline phosphatase (QUANTI-Blue, 620 nm)
Method: Test articles were diluted in DMSO and serially diluted into 384 well assay plate (Corning 3765), at final concentrations ranging from […] to 0.5 nM. HEK Blue™ TNFα reporter cells were added at a final density of 10,000 cell per well in assay media [DMEM (Gibco, cat #21063-029), 10% fetal bovine serum (ExcelBio, cat #FND500), 1% Penicillin-Streptomycin (Solarbio, cat #P1400-100]. TNF-α (R&D 210-TA-020/CF) was then added to the assay plate at a final concentration of […]. This plate was then incubated for 24 hrs at 37° C. and 5% CO2. Secreted alkaline phosphatase expression was then measured using QUANTI-Blue™(Invivogen), according to manufacturer instructions and read on an Envision microplate reader at 620 nm.
Inhibition data for test compound over a range of concentration was plotted as percentage inhibition of the test compound (100%=maximum inhibition). IC50 values were determined after correcting for background [(sample read-mean of low control)/(mean of high control-mean of low control)] whereby the low control is DMSO without stimulation and high control is DMSO with stimulation. The IC50 is defined as the concentration of test compound which produces […] and was quantified using the 4 parameter logistic equation to fit the data.

| Compound | pIC50 |
| --- | --- |
| [2H]C([2H])([2H])N1C(=O)c2cccc(OC(F)F)c2[C@H]2C[C@@H]1c1nc3ccc(-c4cnc5c(c4)CC[C@@]5(C)O)nc3n12 (single isomer, unassigned) [Example 67] | 4.52 to 5.00 |
| [2H]C([2H])([2H])N1C(=O)c2cccc(OC(F)F)c2[C@H]2C[C@@H]1c1nc3ccc(-c4cnc5c(c4)CC[C@]5(C)O)nc3n12 (single isomer, unassigned) [Example 68] | 4.52 to 5.00 |
| [2H]C([2H])([2H])N1C(=O)c2cccc(OC(F)F)c2[C@H]2C[C@@H]1c1nc3ccc(-c4cnc5c(c4)OCC[C@@]5(C)O)nc3n12 (single isomer, unassigned) [Example 69] | 4.52 to 5.00 |
| [2H]C([2H])([2H])N1C(=O)c2cccc(OC(F)F)c2[C@H]2C[C@@H]1c1nc3ccc(-c4cnc5c(c4)OCC[C@]5(C)O)nc3n12 (single isomer, unassigned) [Example 70] | 6.00 to 7.00 |
| CN1C(=O)c2cccc(OC(F)F)c2[C@H]2C[C@@H]1c1nc3ccc(-c4cnc5c(c4)CCC5(C)O)cc3n12 (stereo partly drawn) [Example 1, (1R,11R)-18-(difluoromethoxy)-5-{7-hydroxy-7-methyl-5H,6H-cyclopenta[b]pyridin-3-yl}-12-methyl-2,9,12-triazapentacyclo[9.8.1.0^{2,10}.0^{3,8}.0^{14,19}]icosa-3(8),4,6,9,14(19),15,17-heptaen-13-one] | > 7.00 |
| CN1C(=O)c2cccc(OC(F)F)c2[C@H]2C[C@@H]1c1nc3ccc(-c4ccc5c(c4)CC[C@@H]5N)cc3n12 [Example 2, (1R,11R)-5-[(1S)-1-amino-2,3-dihydro-1H-inden-5-yl]-18-(difluoromethoxy)-12-methyl-2,9,12-triazapentacyclo[9.8.1.0^{2,10}.0^{3,8}.0^{14,19}]icosa-3(8),4,6,9,14(19),15,17-heptaen-13-one] | > 7.00 |
| CC1(O)CCc2cc(-c3ccc4nc5n(c4c3)[C@@H]3C[C@H]5NC(=O)c4cccc(OC(F)F)c43)cnc21 (stereo partly drawn) [Example 3, (1R,11R)-18-(difluoromethoxy)-5-{7-hydroxy-7-methyl-5H,6H-cyclopenta[b]pyridin-3-yl}-2,9,12-triazapentacyclo[9.8.1.0^{2,10}.0^{3,8}.0^{14,19}]icosa-3(8),4,6,9,14(19),15,17-heptaen-13-one] | > 7.00 |
| N[C@H]1COc2cc(-c3ccc4nc5n(c4c3)[C@@H]3C[C@H]5NC(=O)c4cccc(OC(F)F)c43)ccc21 [Example 4, (1R,11R)-5-[(3R)-3-amino-2,3-dihydro-1-benzofuran-6-yl]-18-(difluoromethoxy)-2,9,12-triazapentacyclo[9.8.1.0^{2,10}.0^{3,8}.0^{14,19}]icosa-3(8),4,6,9,14(19),15,17-heptaen-13-one] | > 7.00 |
| CN1C(=O)c2cccc(OC(F)F)c2[C@H]2C[C@@H]1c1nc3ccc(-c4ccc5c(c4)OC[C@@H]5N)cc3n12 [Example 5, (1R,11R)-5-[(3R)-3-amino-2,3-dihydro-1-benzofuran-6-yl]-18-(difluoromethoxy)-12-methyl-2,9,12-triazapentacyclo[9.8.1.0^{2,10}.0^{3,8}.0^{14,19}]icosa-3(8),4,6,9,14(19),15,17-heptaen-13-one] | > 7.00 |
| N[C@H]1CCc2cc(-c3ccc4nc5n(c4c3)[C@@H]3C[C@H]5NC(=O)c4cccc(OC(F)F)c43)ccc21 [Example 6, (1R,11R)-5-[(1S)-1-amino-2,3-dihydro-1H-inden-5-yl]-18-(difluoromethoxy)-2,9,12-triazapentacyclo[9.8.1.0^{2,10}.0^{3,8}.0^{14,19}]icosa-3(8),4,6,9,14(19),15,17-heptaen-13-one] | > 7.00 |
| CN1C(=O)c2cccc(OC(F)F)c2[C@H]2C[C@@H]1c1nc3ccc(-c4cc(F)c5c(c4)CC[C@@H]5N)cc3n12 [Example 7, (1R,11R)-5-[(1S)-1-amino-7-fluoro-2,3-dihydro-1H-inden-5-yl]-18-(difluoromethoxy)-12-methyl-2,9,12-triazapentacyclo[9.8.1.0^{2,10}.0^{3,8}.0^{14,19}]icosa-3(8),4,6,9,14(19),15,17-heptaen-13-one] | > 7.00 |
| CN1C(=O)c2cccc(OC(F)F)c2[C@H]2C[C@@H]1c1nc3ccc(-c4cnc5c(c4)CCC5=O)cc3n12 [Example 8, (1R,11R)-18-(difluoromethoxy)-12-methyl-5-{7-oxo-5H,6H-cyclopenta[b]pyridin-3-yl}-2,9,12-triazapentacyclo[9.8.1.0^{2,10}.0^{3,8}.0^{14,19}]icosa-3(8),4,6,9,14(19),15,17-heptaen-13-one] | > 7.00 |
| CN1C(=O)c2cccc(OC(F)F)c2[C@H]2C[C@@H]1c1nc3ccc(-c4ccc5c(c4)CC[C@H]5N)cc3n12 [Example 9, (1R,11R)-5-[(1R)-1-amino-2,3-dihydro-1H-inden-5-yl]-18-(difluoromethoxy)-12-methyl-2,9,12-triazapentacyclo[9.8.1.0^{2,10}.0^{3,8}.0^{14,19}]icosa-3(8),4,6,9,14(19),15,17-heptaen-13-one] | > 7.00 |
| CN1C(=O)c2cccc(OC(F)F)c2[C@H]2C[C@@H]1c1nc3ccc(-c4ccc5c(c4)OCC[C@@H]5N)cc3n12 [Example 10, (1R,11R)-5-[(4S)-4-amino-3,4-dihydro-2H-1-benzopyran-7-yl]-18-(difluoromethoxy)-12-methyl-2,9,12-triazapentacyclo[9.8.1.0^{2,10}.0^{3,8}.0^{14,19}]icosa-3(8),4,6,9,14(19),15,17-heptaen-13-one] | > 7.00 |
| N[C@H]1CCc2cc(-c3ccc4nc5n(c4c3)[C@@H]3C[C@H]5NC(=O)c4cccc(OC(F)F)c43)cc(F)c21 [Example 13, (1R,11R)-5-[(1S)-1-amino-7-fluoro-2,3-dihydro-1H-inden-5-yl]-18-(difluoromethoxy)-2,9,12-triazapentacyclo[9.8.1.0^{2,10}.0^{3,8}.0^{14,19}]icosa-3(8),4,6,9,14(19),15,17-heptaen-13-one] | > 7.00 |
| N[C@H]1COc2cc(-c3ccc4nc5n(c4c3)[C@@H]3C[C@H]5N(C4CC4)C(=O)c4cccc(OC(F)F)c43)ccc21 [Example 14, (1R,11R)-5-[(3R)-3-amino-2,3-dihydro-1-benzofuran-6-yl]-12-cyclopropyl-18-(difluoromethoxy)-2,9,12-triazapentacyclo[9.8.1.0^{2,10}.0^{3,8}.0^{14,19}]icosa-3(8),4,6,9,14(19),15,17-heptaen-13-one] | > 7.00 |
| CN1C(=O)c2cccc(OC(F)F)c2[C@H]2C[C@@H]1c1nc3ccc(-c4ccc5c(c4)CC[C@@H]5O)cc3n12 [Example 15, (1R,11R)-18-(difluoromethoxy)-5-[(1S)-1-hydroxy-2,3-dihydro-1H-inden-5-yl]-12-methyl-2,9,12-triazapentacyclo[9.8.1.0^{2,10}.0^{3,8}.0^{14,19}]icosa-3(8),4,6,9,14(19),15,17-heptaen-13-one] | > 7.00 |
| CN1C(=O)c2cccc(OC(F)F)c2[C@H]2C[C@@H]1c1nc3ccc(-c4cnc5c(c4)CNC5=O)cc3n12 [Example 18, (1R,11R)-18-(difluoromethoxy)-12-methyl-5-{7-oxo-5H,6H-pyrrolo[3,4-b]pyridin-3-yl}-2,9,12-triazapentacyclo[9.8.1.0^{2,10}.0^{3,8}.0^{14,19}]icosa-3(8),4,6,9,14(19),15,17-heptaen-13-one] | 6.00 to 7.00 |
| CN1C(=O)c2cccc(OC(F)F)c2[C@H]2C[C@@H]1c1nc3ccc(-c4cnc5c(c4)OCC[C@@H]5N)cc3n12 [Example 19, (1R,11R)-5-[(4S)-4-amino-2H,3H,4H-pyrano[3,2-b]pyridin-7-yl]-18-(difluoromethoxy)-12-methyl-2,9,12-triazapentacyclo[9.8.1.0^{2,10}.0^{3,8}.0^{14,19}]icosa-3(8),4,6,9,14(19),15,17-heptaen-13-one] | > 7.00 |
| CN1Cc2cc(-c3ccc4nc5n(c4c3)[C@@H]3C[C@H]5N(C)C(=O)c4cccc(OC(F)F)c43)cnc2C1=O [Example 20, (1R,11R)-18-(difluoromethoxy)-12-methyl-5-{6-methyl-7-oxo-5H-pyrrolo[3,4-b]pyridin-3-yl}-2,9,12-triazapentacyclo[9.8.1.0^{2,10}.0^{3,8}.0^{14,19}]icosa-3(8),4,6,9,14(19),15,17-heptaen-13-one] | > 7.00 |
| CN1C(=O)c2cccc(OC(F)F)c2[C@H]2C[C@@H]1c1nc3ccc(-c4ccc5c(c4)NC(=O)C5(C)O)cc3n12 (stereo partly drawn) [Example 21, (1R,11R)-18-(difluoromethoxy)-5-(3-hydroxy-3-methyl-2-oxo-1H-indol-6-yl)-12-methyl-2,9,12-triazapentacyclo[9.8.1.0^{2,10}.0^{3,8}.0^{14,19}]icosa-3(8),4,6,9,14(19),15,17-heptaen-13-one] | > 7.00 |
| CN1C(=O)c2cccc(OC(F)F)c2[C@H]2C[C@@H]1c1nc3ccc(-c4ccc5c(c4)OCCC5(C)N)cc3n12 (stereo partly drawn) [Example 24, (1R,11R)-5-(4-amino-4-methyl-2,3-dihydro-1-benzopyran-7-yl)-18-(difluoromethoxy)-12-methyl-2,9,12-triazapentacyclo[9.8.1.0^{2,10}.0^{3,8}.0^{14,19}]icosa-3(8),4,6,9,14(19),15,17-heptaen-13-one] | > 7.00 |
| CN1C(=O)c2cccc(OC(F)F)c2[C@H]2C[C@@H]1c1nc3cc(F)c(-c4cnc5c(c4)CCC5(C)N)cc3n12 (stereo partly drawn) [Example 27, (1R,11R)-5-{7-amino-7-methyl-5H,6H-cyclopenta[b]pyridin-3-yl}-18-(difluoromethoxy)-6-fluoro-12-methyl-2,9,12-triazapentacyclo[9.8.1.0^{2,10}.0^{3,8}.0^{14,19}]icosa-3(8),4,6,9,14(19),15,17-heptaen-13-one; formic acid] | > 7.00 |
